Results: paper PMC7059199, “Identification and structural insight of an effective PPARγ modulator with improved therapeutic index for anti-diabetic drug discovery” (Chemical Science, 2020)

Tested on: 3T3-L1 cells
Test: 3T3-L1 adipocyte differentiation assay (Oil Red O staining)
Type: cell-based, mouse
Experimental: One of the best documented side-effects of the PPARγ agonist drugs is weight gain as PPARγ is the key activator of adipogenesis. To determine whether VSP-77 promotes adipogenesis, we treated mouse fibroblast 3T3-L1 cells with 100 μM of VSP-77. […] Cells were incubated with Oil Red O, which stains adipocytes red.
Fig. 6 3T3-L1 adipocyte differentiation assay. Oil Red O staining of 3T3-L1 fibroblast cells after differentiating with different ligands for 2 days. […]
Adipocyte differentiation assay
The adipocyte differentiation assay was performed with NIH 3T3-L1 preadipocytes obtained from ATCC. The 3T3-L1 preadipocytes were maintained in DMEM containing 10% FBS and antibiotics. For differentiation DMI (Dexamethazone 1 μM, 3-isobutyl-1-methyxanthine (IBMX) 0.5 mM and Insulin167 nM) and 10 μM of rosiglitazone were used as positive controls for the assay. VSP-77 was used at a 100 μM concentration. All the treatments have insulin at 167 nM concentration. Media with DMSO was used as a negative control. Differentiation was induced by treating post-confluent cultures with media containing the respective ligands for two days.
Cells were stained with Oil Red O to estimate the lipid accumulation. The images were analyzed using ImageJ (National Institutes of Health). […]

CCCCCCCC(OCC(=O)O)c1ccc(Cl)cc1 (stereo not drawn) [VSP-77]
adipogenesis (in words) (100 μM): does not activate adipogenesis
total number of adipocytes when added to DMI- or Rosi-treated cells (VSP-77 100 μM): clear decrease
% Area stained by Oil Red O (VSP-77 100 μM, 2 days): 0%
